Experiments:
NICD1 protein [1] = test: NICD1 protein expression by western blotting in SH-SY5Y cells; format: cell-based, human; conditions: 5 μM, treated in combination after overexpression of Pin1, SH-SY5Y, FIG. 1B
Procedure: In Examples according to the present invention, a human neuroblastoma cell line, SH-SY5Y, and a mouse embryonic fibroblast cell line, an MEF cell, were used. All of the cells were cultured in DMEM (Sigma) media containing 10% fetal bovine serum (Gibco, Welgene, Hyclone) and 1% penicillin/streptomycin.
(§1) A sample was prepared by isolating a protein from cells, and analyzed by 10% sodium dodecyl sulfate (SDS)-polyacrylamide gel electrophoresis using Tris-glycine running buffer. The gel was removed after the electrophoresis, and a transferring process was performed using a transfer buffer containing 0.025 mol/L Tris base, 0.15 mol/L glycine, and 10% (v/v) methanol at 15 V for 1.5 hours to transfer proteins onto a nitrocellulose membrane along an electrical flow. The protein-binding membrane was immersed in blocking buffer (5% non-fat milk in 20 mM Tris-HCl, pH 7.5, 137 mM NaCl, 0.2% Tween-20), and reacted at room temperature for 1 hour. […]
First, to verify the correlation between the Notch1 signaling activity and Pin1, Pin1 protein was overexpressed with Pin1 cDNA in a human neuroblastoma cell line, SH-SY5Y, and a change in expression of a Notch1 signaling-activation molecule, NICD1 protein, was analyzed by western blotting (WB). […]

SH-SY5Y cells = test: Apoptosis of SH-SY5Y cells under GD or OGD by trypan blue staining; format: cell-based, human; conditions: OGD or GD condition for 6 hours or 12 hours, juglone 1.5 μM, PiB 5 μM, DTM 5 μM, FIGS. 5A to 5D
Procedure: By the method as described in Example 4, SH-SY5Y cells were exposed to OGD or GD conditions to induce apoptosis, and Pin1 inhibitors including juglone were treated to verify a neuroprotective effect.
SH-SY5Y cells were treated with Pin1 inhibitors such as 5-hydroxy-1,4-naphthoquinone (juglone), diethyl-1,3,6,8-tetrahydro-1,3,6,8-tetraoxobenzo phenanthroline-2,7-diacetate (PiB), and dipentamethylene thiuram monosulfide (DTM) at a concentration each of 1.5, 5 or 5 μM, and exposed to a GD or OGD condition for 6 hours or 12 hours to induce apoptosis, and then stained with trypan blue (0.4%) to quantify a degree of apoptosis.

NICD1 ubiquitination = NICD1 ubiquitination by co-immunoprecipitation and western blotting in Pin1-overexpressing SH-SY5Y cells; format: cell-based, human; conditions: 1.5 μM, Pin1-overexpressing SH-SY5Y treated with MG132, FIG. 3A
Excerpt: MYC-tagged NICD1, HA-tagged ubiquitin (Ub), and Pin1 were expressed in SH-SY5Y cell lines, and treated with MG132 to inhibit a proteolytic activity of a 26S proteasome complex. Afterward, HA and FBW7-specific antibodies were used to analyze a degree of NICD1 ubiquitination by co-immunoprecipitation (IP) and western blotting (WB).

Pin1 protein [2] = test: Pin1 protein expression in primary neuronal cells in ischemic stroke-like environment (immunocytochemistry, western blotting); format: cell-based; conditions: OGD or GD condition, FIGS. 4A and 4B
Procedure: (§8) Primary neuronal cells were cultured in a glucose and serum-free medium in a 5% or 1% oxygen incubator for 9, 12 and 24 hours to create an ischemic stroke-like environment on a cellular level, thereby inducing the neuronal cell death. Afterward, an expression level of the Pin1 protein was analyzed by immunocytochemistry and western blotting.
(§9) In addition, after the neuronal cells were cultured under the OGD condition for 12 hours, the induction of the neuronal cell death was detected by trypan blue (0.4%) staining, which is shown in FIG. 4C.

[3] = system: cleaved caspase-3 (CLCas-3) protein; test: Cleaved caspase-3 expression in primary neuronal cells under GD or OGD by western blotting; format: cell-based; conditions: GD or OGD condition for 12 hours or 24 hours, FIGS. 4D and 4E
Procedure: as §1, with “hour. Afterward, the membrane was reacted overnight with primary antibodies, such as Pin1 (R&D, Epitomics), NICD1 (Upstate), MYC (Roche), FBW7 (Bioss), or Actin (Sigma), which specifically bound to each protein whose expression level was to be confirmed, at 4° C. The next day, the membrane was washed with Tris-buffered saline-T (20 mM Tris-HCL, pH 7.5, 137 mM NaCl, 0.2% Tween-20) three times each for 10 minutes.” for “hour.”
(§2) Subsequently, primary neuronal cells were cultured under a GD or OGD condition for 12 hours or 24 hours, and then changes in expressions of caspase-3, which is one of the apoptosis signal proteins, and NICD1 protein were analyzed by western blotting.

NICD1 protein [4] = test: NICD1 expression in primary neuronal cells under GD or OGD by western blotting; format: cell-based; conditions: GD or OGD condition, FIGS. 4F and 4G
Procedure: as §1, with “hour. Afterward, the membrane was reacted overnight with primary antibodies, such as Pin1 (R&D, Epitomics), NICD1 (Upstate), MYC (Roche), FBW7 (Bioss), or Actin (Sigma), which specifically bound to each protein whose expression level was to be confirmed, at 4° C. The next day, the membrane was washed with Tris-buffered saline-T (20 mM Tris-HCL, pH 7.5, 137 mM NaCl, 0.2% Tween-20) three times each for 10 minutes.” for “hour.”
as §2

[5] = system: middle cerebral artery occlusion (MCAO) animal model; test: Stroke inhibitory effect in MCAO animal model, administration before MCAO operation; format: in vivo; conditions: mouse, 3 mg/kg intraperitoneally twice before MCAO operation, compared to control group
Excerpt: (§3) A mouse was anesthetized and an epidermis around the neck was incised. The left common carotid artery linked to the left hemisphere was ligated with a surgical suture, and then the external carotid artery was incised to insert a filament thereinto. The filament was pushed into the middle cerebral artery through the internal carotid artery to locally clog the middle cerebral artery, thereby interrupting blood supply to construct an ischemic animal model. After cerebral infarction was induced in the animal model for 1 hour, the filament was removed from the blood vessel (artery), and then the blood was supplied again to the blood vessel, followed by suturing.
Ischemic stroke was trigged in the mouse by intraperitoneally administering the juglone (3 mg/kg) twice and conducting an MCAO operation, and then the resultant mouse was compared with a control group mouse to which the juglone was not administered.

NICD1 protein [6] = test: NICD1 expression in left hemisphere of MCAO mouse, administration before MCAO (western blotting); format: in vivo; conditions: 3 mg/kg intraperitoneally twice before MCAO, compared to control group, FIGS. 7C and 7D
Procedure: (§4) A sample was prepared by isolating a protein from cells, and analyzed by 10% sodium dodecyl sulfate (SDS)-polyacrylamide gel electrophoresis using Tris-glycine running buffer. The gel was removed after the electrophoresis, and a transferring process was performed using a transfer buffer containing 0.025 mol/L Tris base, 0.15 mol/L glycine, and 10% (v/v) methanol at 15 V for 1.5 hours to transfer proteins onto a nitrocellulose membrane along an electrical flow. The protein-binding membrane was immersed in blocking buffer (5% non-fat milk in 20 mM Tris-HCl, pH 7.5, 137 mM NaCl, 0.2% Tween-20), and reacted at room temperature for 1 hour. […] The next day, the membrane was washed with Tris-buffered saline-T (20 mM Tris-HCL, pH 7.5, 137 mM NaCl, 0.2% Tween-20) three times each for 10 minutes. In addition, the membrane was reacted with secondary antibodies at room temperature for 1 hour, washed again three times, and then scanned using an Odyssey® Infrared Imaging System (LI-COR Biosciences) or ECL-plus system to analyze the expression level of each protein.
(§5) A mouse was anesthetized and an epidermis around the neck was incised. […]
(§6) In addition, the left hemisphere of the stroke-triggered mouse was analyzed by western blotting to compare the expressions of NICD1, Pin1 and FBW7 proteins.

Pin1 protein [7] = test: Pin1 expression in left hemisphere of MCAO mouse, administration before MCAO (western blotting); format: in vivo; conditions: 3 mg/kg intraperitoneally twice before MCAO, compared to control group, FIGS. 7C and 7D
Procedure: as §4, §5, §6

FBW7 protein [8] = test: FBW7 expression in left hemisphere of MCAO mouse, administration before MCAO (western blotting); format: in vivo; conditions: 3 mg/kg intraperitoneally twice before MCAO, compared to control group, FIGS. 7C and 7D
Procedure: as §4, §5, §6

[9] = system: middle cerebral artery occlusion (MCAO) animal model; test: Neuroprotective effect in MCAO animal model, administration after triggering of ischemic stroke; format: in vivo; conditions: mouse, 3 mg/kg once by intravenous injection after MCAO operation, compared to control group
Excerpt: as §3
An MCAO operation was conducted on a mouse as described in Example 1-4 to trigger ischemic stroke, and then juglone (3 mg/kg) was administered once to the mouse by intravenous injection. Afterward, the resultant mouse was compared with the control group mouse to which the juglone was not administered.

NICD1 protein [10] = test: NICD1 expression in MCAO mouse brain, administration after stroke (western blotting); format: in vivo; conditions: 3 mg/kg once by intravenous injection after MCAO, compared to control group, FIGS. 8C and 8D
Procedure: as §4
(§7) A mouse was anesthetized and an epidermis around the neck was incised. The left common carotid artery linked to the left hemisphere was ligated with a surgical suture, and then the external carotid artery was incised to insert a filament thereinto. […]

Pin1 protein [11] = test: Pin1 expression in MCAO mouse brain, administration after stroke (western blotting); format: in vivo; conditions: 3 mg/kg once by intravenous injection after MCAO, compared to control group, FIGS. 8C and 8D
Procedure: as §4, §7

FBW7 protein [12] = test: FBW7 expression in MCAO mouse brain, administration after stroke (western blotting); format: in vivo; conditions: 3 mg/kg once by intravenous injection after MCAO, compared to control group, FIGS. 8C and 8D
Procedure: as §4, §7

primary neuronal cells = test: Neuronal cell death under OGD condition by trypan blue staining; conditions: OGD condition for 12 hours, FIG. 4C
Procedure: as §8, §9

For `C[C@H](NC(=O)Cc1cc(F)cc(F)c1)C(=O)N[C@H](C(=O)OC(C)(C)C)c1ccccc1` [DAPT, N-[N-(3,5-difluorophenacetyl)-1-alanyl]-S-phenylglycine t-butyl ester], the “expression of NICD1 protein” value (NICD1 protein [1]) was “increase in NICD1 was not found”.
In the case of `S=C(SC(=S)N1CCCCC1)N1CCCCC1` [DTM, dipentamethylene thiuram monosulfide], the “apoptosis (trypan blue)” value (SH-SY5Y cells) is reported as “decreased to a greater or less extent”.
In the case of `CCOC(=O)CN1C(=O)c2ccc3c4c(ccc(c24)C1=O)C(=O)N(CC(=O)OCC)C3=O` [PiB, diethyl-1,3,6,8-tetrahydro-1,3,6,8-tetraoxobenzo phenanthroline-2,7-diacetate], the “apoptosis (trypan blue)” value (SH-SY5Y cells) is reported as “decreased to a greater or less extent”.
For `O=C1C=CC(=O)c2c(O)cccc21` [juglone, 5-hydroxy-1,4-naphthoquinone], the NICD1 ubiquitination (NICD1 ubiquitination) was “increased again”, the Pin1 expression (Pin1 protein [2]) was “reduced” and the “expression of cleaved caspase-3 (CLCas-3) protein” value [3] was “decreased”. For the same molecule, the “expression of NICD1 protein” value (NICD1 protein [4]) was “decreased”, the “apoptosis (trypan blue)” value (SH-SY5Y cells) was “decreased to a greater or less extent” and the generation of ischemia ([5]; FIG. 7A) was “decreased”. The neurological deficits ([5]; FIG. 7B) was “decreased”, the “expression of NICD1 protein” value (NICD1 protein [6]) was “decreased” and the “expression of Pin1 protein” value (Pin1 protein [7]) was “decreased”. The “expression of FBW7 protein” value (FBW7 protein [8]) was “increased”, the generation of ischemia ([9]; FIG. 8A) was “decreased” and the neurological deficits ([9]; FIG. 8B) was “decreased”. The “expression of NICD1 protein” value (NICD1 protein [10]) was “decreased”, the “expression of Pin1 protein” value (Pin1 protein [11]) was “decreased” and the “expression of FBW7 protein” value (FBW7 protein [12]) was “increased”. The “apoptosis (neuronal cell death, trypan blue)” value (primary neuronal cells) was “reduced”.
